The text below walks through data of PubChem BioAssay AID1745844 (Carcinogenic Potency Database (CPDB), 2022).

Activity calls are given as the source filed them. How the calls were made is not given here.

The series relates to rodent lifetime carcinogenesis bioassay, tumor incidence TD50. As to the kind of experiment: carcinogenic potency in animals, long-term in vivo studies, CPDB compilation (AID 1745844).
The mark [1] stands for this setting: mouse, strain B6C3F1, females, by gavage, site: any site (literature study), lesion: several types, types named in the paper, dosed 103 weeks, study length 105 weeks.
Setting [2] is: mouse, strain B6C3F1, females, by gavage, site: liver, lesion: hepatocellular adenoma + hepatocellular carcinoma + neoplastic nodule, dosed 103 weeks, study length 105 weeks.

Usually TD50 stands for the dose at which the toxic effect under study appears in half of the subjects. Take `N[C@@H](CCC(=O)NNc1ccc(C(=O)O)cc1)C(=O)O`: the TD50 is 41400 mg/kg/day (mouse, strain Swiss albino, females, by gavage, site: liver, lesion: several types, types named in the paper, dosed 52 weeks, study length 133 weeks); 250 mg/kg/day (mouse, strain Swiss albino, males, by gavage, site: lung, lesion: several types, types named in the paper, dosed 52 weeks, study length 133 weeks); 277 mg/kg/day (mouse, strain Swiss albino, males, by gavage, site: subcutaneous tissue, lesion: fibrosarcoma, dosed 52 weeks, study length 133 weeks).

On to `[O]=[Bi]`, for which the carcinogen call reads like this: (rat, strain BD, both sexes, in feed, site: hypophysis, lesion: adenoma, dosed 104 weeks, study length 120 weeks) “negative (inactive)”; (rat, strain BD, both sexes, in feed, site: mammary gland, lesion: carcinoma, dosed 104 weeks, study length 120 weeks) “negative (inactive)”. For the same compound, the TD50 (rat, strain BD, both sexes, in feed, site: mammary gland, lesion: fibroadenoma, dosed 104 weeks, study length 120 weeks) was 150000 mg/kg/day (inactive).

For `C=CC(=O)NCO`, the TD50 is 27.8 mg/kg/day (mouse, strain B6C3F1, females, by gavage, site: Harderian gland + liver + lung + ovary, lesion: adenoma + adenoma, bilateral + hepatocellular adenoma + alveolar/bronchiolar adenoma + alveolar/bronchiolar carcinoma + granulosa-, dosed 103 weeks, study length 105 weeks); 44.6 mg/kg/day (mouse, strain B6C3F1, females, by gavage, site: Harderian gland, lesion: adenoma + adenoma, bilateral + carcinoma, dosed 103 weeks, study length 105 weeks); 55.5 mg/kg/day (mouse, strain B6C3F1, females, by gavage, site: Harderian gland, lesion: adenoma + adenoma, bilateral, dosed 103 weeks, study length 105 weeks); 30.9 mg/kg/day under setting [1]; 74.8 mg/kg/day under setting [2]; 74.8 mg/kg/day (mouse, strain B6C3F1, females, by gavage, site: liver, lesion: hepatocellular adenoma + hepatocellular carcinoma, dosed 103 weeks, study length 105 weeks). The TD50 is, setting by setting: (mouse, strain B6C3F1, females, by gavage, site: liver, lesion: hepatocellular adenoma, dosed 103 weeks, study length 105 weeks) 66.9 mg/kg/day; (mouse, strain B6C3F1, females, by gavage, site: lung, lesion: alveolar/bronchiolar adenoma + alveolar/bronchiolar carcinoma, dosed 103 weeks, study length 105 weeks) 111 mg/kg/day; (mouse, strain B6C3F1, females, by gavage, site: ovary, lesion: granulosa-cell tumor, benign, dosed 103 weeks, study length 105 weeks) 119 mg/kg/day; (mouse, strain B6C3F1, males, by gavage, site: Harderian gland + liver + lung, lesion: adenoma + hepatocellular adenoma + hepatocellular carcinoma + alveolar/bronchiolar adenoma + alveolar/bronchiolar carcinoma, dosed 103 weeks, study length 105 weeks) 13.3 mg/kg/day; (mouse, strain B6C3F1, males, by gavage, site: Harderian gland, lesion: adenoma + carcinoma, dosed 103 weeks, study length 105 weeks) 17.4 mg/kg/day; (mouse, strain B6C3F1, males, by gavage, site: Harderian gland, lesion: adenoma, dosed 103 weeks, study length 105 weeks) 17.5 mg/kg/day. The TD50 by setting is: (mouse, strain B6C3F1, males, by gavage, site: any site (literature study), lesion: several types, types named in the paper, dosed 103 weeks, study length 105 weeks) 22.3 mg/kg/day; (mouse, strain B6C3F1, males, by gavage, site: liver, lesion: hepatocellular adenoma + hepatocellular carcinoma + neoplastic nodule, dosed 103 weeks, study length 105 weeks) 29.4 mg/kg/day; (mouse, strain B6C3F1, males, by gavage, site: liver, lesion: hepatocellular adenoma + hepatocellular carcinoma, dosed 103 weeks, study length 105 weeks) 29.4 mg/kg/day; (mouse, strain B6C3F1, males, by gavage, site: liver, lesion: hepatocellular adenoma, dosed 103 weeks, study length 105 weeks) 50.2 mg/kg/day; (mouse, strain B6C3F1, males, by gavage, site: liver, lesion: hepatocellular carcinoma, dosed 103 weeks, study length 105 weeks) 63.4 mg/kg/day; (mouse, strain B6C3F1, males, by gavage, site: lung, lesion: alveolar/bronchiolar adenoma + alveolar/bronchiolar carcinoma, dosed 103 weeks, study length 105 weeks) 38.5 mg/kg/day. For the same compound, the TD50 (mouse, strain B6C3F1, males, by gavage, site: lung, lesion: alveolar/bronchiolar adenoma, dosed 103 weeks, study length 105 weeks) was 66 mg/kg/day; the TD50 (mouse, strain B6C3F1, males, by gavage, site: lung, lesion: alveolar/bronchiolar carcinoma, dosed 103 weeks, study length 105 weeks) was found to be 75.1 mg/kg/day; the TD50 (rat, strain Fischer 344, males, by gavage, site: any site (literature study), lesion: several types, types named in the paper, dosed 103 weeks, study length 105 weeks) came out at 3120 mg/kg/day; the TD50 (rat, strain Fischer 344, males, by gavage, site: skin, lesion: keratoacanthoma, dosed 103 weeks, study length 105 weeks) was 13 mg/kg/day (inactive). Also, the carcinogen call (rat, strain Fischer 344, females, by gavage, site: any site (literature study), lesion: several types, types named in the paper, dosed 103 weeks, study length 105 weeks) is “negative (inactive)”.

As to `N[C@@H](CCC(=O)NNc1ccc(CO)cc1)C(=O)O`, the TD50 is, setting by setting: (mouse, strain Swiss albino, females, in drinking water, site: liver, lesion: angiosarcoma, dosed 121 weeks, study length 121 weeks) 2720 mg/kg/day; (mouse, strain Swiss albino, females, in drinking water, site: lung, lesion: adenoma, dosed 121 weeks, study length 121 weeks) 3290 mg/kg/day; (mouse, strain Swiss albino, males, in drinking water, site: liver, lesion: angiosarcoma, dosed 120 weeks, study length 120 weeks) 2040 mg/kg/day; (mouse, strain Swiss albino, males, in drinking water, site: liver, lesion: hepatoma, dosed 120 weeks, study length 120 weeks) 3310 mg/kg/day (inactive). In addition, the carcinogen call runs as follows: (mouse, strain Swiss albino, females, in drinking water, site: lung, lesion: several types, types named in the paper, dosed 121 weeks, study length 121 weeks) “negative (inactive)”; (mouse, strain Swiss albino, males, in drinking water, site: lung, lesion: several types, types named in the paper, dosed 120 weeks, study length 120 weeks) “negative (inactive)”.

For `ClC(Cl)C(Cl)Cl`, the TD50 (mouse, strain B6C3F1, females, by gavage, site: any site (literature study), lesion: several types, types named in the paper, dosed 78 weeks, study length 92 weeks) was 37.2 mg/kg/day; the TD50 (mouse, strain B6C3F1, females, by gavage, site: liver, lesion: hepatocellular adenoma + hepatocellular carcinoma + neoplastic nodule, dosed 78 weeks, study length 92 weeks) came out at 35.4 mg/kg/day; the TD50 (mouse, strain B6C3F1, females, by gavage, site: liver, lesion: hepatocellular carcinoma, dosed 78 weeks, study length 91 weeks) is 35.8 mg/kg/day; the TD50 (mouse, strain B6C3F1, females, by gavage, site: liver, lesion: hepatocellular carcinoma, dosed 78 weeks, study length 92 weeks) was 35.4 mg/kg/day; the TD50 (mouse, strain B6C3F1, females, by gavage, site: lung, lesion: alveolar/bronchiolar adenoma + alveolar/bronchiolar carcinoma, dosed 78 weeks, study length 92 weeks) is 1910 mg/kg/day; the TD50 (mouse, strain B6C3F1, males, by gavage, site: any site (literature study), lesion: several types, types named in the paper, dosed 78 weeks, study length 92 weeks) was 38.7 mg/kg/day. For the same compound, the TD50 by setting is: (mouse, strain B6C3F1, males, by gavage, site: liver, lesion: hepatocellular adenoma + hepatocellular carcinoma + neoplastic nodule, dosed 78 weeks, study length 92 weeks) 41.6 mg/kg/day; (mouse, strain B6C3F1, males, by gavage, site: liver, lesion: hepatocellular carcinoma, dosed 78 weeks, study length 91 weeks) 45.4 mg/kg/day; (mouse, strain B6C3F1, males, by gavage, site: liver, lesion: hepatocellular carcinoma, dosed 78 weeks, study length 92 weeks) 41.6 mg/kg/day; (mouse, strain B6C3F1, males, by gavage, site: lung, lesion: alveolar/bronchiolar adenoma + alveolar/bronchiolar carcinoma, dosed 78 weeks, study length 92 weeks) 895 mg/kg/day; (rat, strain Osborne-Mendel, females, by gavage, site: any site (literature study), lesion: several types, types named in the paper, dosed 77 weeks, study length 110 weeks) 84.2 mg/kg/day (inactive); (rat, strain Osborne-Mendel, males, by gavage, site: liver, lesion: hepatocellular adenoma + hepatocellular carcinoma + neoplastic nodule, dosed 77 weeks, study length 110 weeks) 624 mg/kg/day. Moreover, the carcinogen call (rat, strain Osborne-Mendel, males, by gavage, site: any site (literature study), lesion: several types, types named in the paper, dosed 77 weeks, study length 110 weeks) was “negative (inactive)”.

As for `Nc1ccc(-c2ccc(N)c(O)c2)cc1O`, the TD50 (mouse, strain ICR/Jcl, males, in feed, site: liver, lesion: hepatoma, dosed 65 weeks, study length 65 weeks) was 353 mg/kg/day.

For the compound `O=P(O)(O)O`, the TD50 by setting is: under setting [1], 958 mg/kg/day; under setting [2], 3710 mg/kg/day; (mouse, strain B6C3F1, females, by gavage, site: subcutaneous tissue, lesion: sarcoma, NOS, dosed 103 weeks, study length 105 weeks) 1490 mg/kg/day (inactive); (mouse, strain B6C3F1, males, by gavage, site: adrenal gland, lesion: cortical adenoma, dosed 103 weeks, study length 104 weeks) 5840 mg/kg/day (inactive); (mouse, strain B6C3F1, males, by gavage, site: any site (literature study), lesion: several types, types named in the paper, dosed 103 weeks, study length 104 weeks) 11600 mg/kg/day; (mouse, strain B6C3F1, males, by gavage, site: liver, lesion: hepatocellular adenoma + hepatocellular carcinoma + neoplastic nodule, dosed 103 weeks, study length 104 weeks) 2950 mg/kg/day. Also, the TD50 reads like this: (mouse, strain B6C3F1, males, by gavage, site: lung, lesion: alveolar/bronchiolar adenoma + alveolar/bronchiolar carcinoma, dosed 103 weeks, study length 104 weeks) 19900 mg/kg/day; (mouse, strain B6C3F1, males, by gavage, site: multiple organs, lesion: malignant lymphoma, lymphocytic type, dosed 103 weeks, study length 104 weeks) 8420 mg/kg/day.

For the compound `O=[N+]([O-])c1ccc(-c2nc(N3CCOCC3)c3ccccc3n2)s1`, the TD50 (rat, strain Sprague-Dawley, females, in feed, site: any site (literature study), lesion: several types, types named in the paper, dosed 46 weeks, study length 66 weeks) was 5.03 mg/kg/day.

Consider `CCOC(=O)/C=C\C(=O)OCC`, for which the carcinogen call runs as follows: (rat, strain F344/DuCrj, males, in feed, site: forestomach, lesion: one or several types, types not named, dosed 51 weeks, study length 52 weeks) “negative (inactive)”; (rat, strain F344/DuCrj, males, in feed, site: stomach, glandular, lesion: one or several types, types not named, dosed 51 weeks, study length 52 weeks) “negative (inactive)”. This compound showed a TD50 (rat, strain F344/DuCrj, males, in feed, site: forestomach, lesion: squamous-cell papilloma, dosed 104 weeks, study length 104 weeks) of 1070 mg/kg/day.

`O=C(C1CCCCC1)N1CC(=O)N2CCc3ccccc3C2C1` (stereo not given): the TD50 (hamster, strain Syrian Golden, females, by gavage, site: any site (literature study), lesion: several types, types named in the paper, dosed 80 weeks, study length 80 weeks) was 250 mg/kg/day (inactive). For the same compound, the carcinogen call is “negative (inactive)” (hamster, strain Syrian Golden, males, by gavage, site: any site (literature study), lesion: several types, types named in the paper, dosed 80 weeks, study length 80 weeks); “negative (inactive)” (rat, strain Sprague-Dawley, females, by gavage, site: any site (literature study), lesion: several types, types named in the paper, dosed 104 weeks, study length 130 weeks); “negative (inactive)” (rat, strain Sprague-Dawley, males, by gavage, site: any site (literature study), lesion: several types, types named in the paper, dosed 104 weeks, study length 130 weeks).
